Test results published in patent US20110077230A1, “COPPER ORGANOCOMPLEXES, USE THEREOF AS ANTITUMOR MEANS AND FOR PROTECTING HEALTHY TISSUE FROM IONIZING RADIATION” (CHARITE - UNIVERSITATSMEDIZIN BERLIN, priority 2008, published 2011).

What was measured:
[1] = tested on: melanoma B 16; assay: B 16 melanoma in mice, intraabdominal administration; format: in vivo, mice of the line C 57Bl; details: for Average volume of tumor / Average weight of tumor: days 3, 5, 7, 9
Description: The melanoma B 16 was implanted in 20 mice of the line C 57Bl by subcutaneous injection into the right thigh. The animals were divided into four groups of five mice each. Group I received complex A at a dosage of 7 mg/kg, dissolved in DMSO, which was administered intraabdominally in a 4% suspension in physiological saline. Each administration was performed 3, 5, 7 and 9 days after trans-plantation of the tumor.
Group II was treated as group I, but using a dosage of 5 mg/kg.
Group III was treated as group I, but received 5 mg/kg of melphalan hydrochloride instead of complex A.
Group IV remained untreated.

[2] = tested on: melanoma B 16; assay: B 16 melanoma in mice, peroral administration versus intraabdominal injection; format: in vivo, mice of the line C 57Bl; parameters: Average weight of tumor: unit not given here; details: for Average weight of tumor: day 16
Description: The melanoma B 16 was implanted in 23 mice of the line C 57Bl by subcutaneous injection into the right thigh. The animals were divided into five groups of four to five mice each.
Group I received complex A at a dosage of 7 mg/kg as a suspension in olive oil which was administered perorally 3, 5, 7 and 9 days after transplantation of the tumor.
Group II was treated as group I, but using a dosage of 10 mg/kg administered on the 3rd, 4th, 5th, 6th, 7th, 8th, 9th and 10th day.
Group III was treated as group II, but using a dosage of 15 mg/kg.
Group IV received complex A 3, 5, 7 and 9 days after transplantation of the tumor at a dosage of 7 mg/kg, dissolved in DMSO, to which end the solution was administered by injection in the form of a 4% suspension in physiological saline.
Group V received no treatment.
On day 16 of the experiment the animals were sacrificed and examined.

[3] = tested on: colon adenocarcinoma tumor (AKATOL); assay: Transplanted colon adenocarcinoma (AKATOL), peroral administration; format: in vivo, mice of the BALB line; details: for Average weight of tumor: days 3 to 10, day 21
Description: Tumor cells were transplanted in mice of the BALB line by injection into the thighs. 3 of 4 groups received the respective preparation on the peroral route 3, 4, 5, 6, 7, 8, 9 and 10 days after tumor implantation.
Group I: 10 mg/kg complex A suspended in olive oil.
Group II: 5 mg/kg complex A suspended in olive oil.
Group III: 10 mg/kg sarcolysine suspended in olive oil.
On day 21 of the experiment the animals were sacrificed and examined.

[4] = tested on: Walker carcinosarcoma; assay: Nitrosyl complexes of hem iron (EPR) in Walker carcinosarcoma; format: in vivo, rats; details: 30 mg/kg intraabdominally in liposomes, especially with hyperglycemia and ultrasound
Description: The oxygen metabolism in malignant cells is affected in such a way that increased NO production in these cells results in increased binding of NO to the hem iron, thereby disturbing the normal function thereof. The formation of such NO bonds becomes manifest in the EPR spectrum as a characteristic triplet overlying a singlet.
The effect of complex A on the concentration of Fe—NO bonds was investigated in an experiment using rats. The Walker carcinosarcoma was transplanted in the rats. 17 days after transplantation the animals were administered intraabdominally with complex A at a dosage of 30 mg/kg, suspended in liposomes from egg lecithin. Some of the animals also received glucose or glucose plus ultrasound.

[5] = tested on: hematopoietic cells in the spleen; assay: Radioprotective effect in irradiated mice; format: in vivo, white mice; details: 6 Gray; 5 mg/kg two hours prior to and three days after irradiation; day 9
Description: White mice of no particular race were irradiated with a sublethal dose of 6 Gray. […] The animals were sacrificed on day 9 after irradiation, and the number of hematopoietic cells in the spleen was determined. No hematopoietic cells were detected in the spleen of untreated animals.

[6] = tested on: Hep-2 tumor cells of human laryngeal carcinoma; assay: Copper uptake by Hep-2 cells (EPR); format: cell-based
Description: Complex A dissolved in Tween 80 was mixed with liposomes from lecithin. This mixture was added with a culture of Hep-2 cells, and the EPR spectra were recorded over time. A culture having no complex A preparation was measured for comparison. The EPR spectra allow quantitative determination of the copper content in the tumor cells. […] This corresponds to an intake of 10 copper-containing molecules in a cell. This saturation value of the cells is reached within 1.5 to 2 hours (FIG. 21). In addition, the cell suspension was purified by filtration, and the filtrate containing the cellular components was fractionated using a centrifuge.

[7] = tested on: human mammary gland tumor cells, T4N2M0 stage; assay: In vitro effect on human mammary gland tumor cells, Experiment 2; format: cell-based
Description: Tumor cells were collected from the surgical material of female patients suffering from mammary carcinoma at two different stages. The tumor tissue was added with sterile 0.25% trypsin solution and centrifuged repeatedly in RPMI-1640 nutrient medium for 15 minutes at 1500 revolutions per minute. The amount of resulting cells was counted and the suspension of tumor cells divided into five equal groups. The RPMI-1640 nutrient medium was added with 12% fetal calf serum. The cells were incubated for 48 h at 37° C. in a 5% CO2 stream.
The preparations were dissolved in 4% DMSO and physiological saline and acidified with HCl.
Two experiments were performed using cancer cells derived from tumors of different stages. To differentiate the various stages of cancer, the TNM classification is used internationally which takes into account the tumor size (T), lymph node affection (N=nodal status) and the extent of metastasis (M).
(T3: large tumor spreading into the tissue surrounding the breast; N2: metastases up to 9 axillary lymph nodes, M0: no distant metastases). A suspension including 40 million cells was added with 50 μl of each preparation.
The 5 groups with cancer cells received the following:
After subjecting the preparations to flow incubation for 60 minutes, trypan blue stained cells were produced, and dead cells and apoptosis could be determined; dead cells and apoptotic cells were determined in specific units of time and morphological findings.

Copper-sarcolysine hydrochloride complex [complex A]
Apoptotic index AI ([1]; 5 mg/kg intraabdominally): 3.68 ‰ | Bone marrow index MI BM ([1]; 5 mg/kg intraabdominally): 3.975 ‰ | Inhibition of tumor growth, mass percent ([1]; 5 mg/kg intraabdominally): mass percent 84.44% | Inhibition of tumor growth, volume percent ([1]; 5 mg/kg intraabdominally): volume percent 80.00% | Mitotic index of tumor cells MI ([1]; 5 mg/kg intraabdominally): 2.175 ‰ | Average volume of tumor ([1]; 5 mg/kg intraabdominally): 0.436 cm^3 | Average weight of tumor ([1]; 5 mg/kg intraabdominally): 202.25 mg | Apoptotic index AI ([1]; 7 mg/kg intraabdominally): 4.25 ‰ | Bone marrow index MI BM ([1]; 7 mg/kg intraabdominally): 3.575 ‰ | Inhibition of tumor growth, mass percent ([1]; 7 mg/kg intraabdominally): mass percent 89.5% | Inhibition of tumor growth, volume percent ([1]; 7 mg/kg intraabdominally): volume percent 98.67% | Mitotic index of tumor cells MI ([1]; 7 mg/kg intraabdominally): 1.3. ‰ | Average volume of tumor ([1]; 7 mg/kg intraabdominally): 0.029 cm^3 | Average weight of tumor ([1]; 7 mg/kg intraabdominally): 136.8 mg | % inhibition, mass percent ([2]; Group I: peroral 7 mg/kg): 62.0% | % inhibition, volume percent ([2]; Group I: peroral 7 mg/kg): 84.1% | Average volume of tumor ([2]; Group I: peroral 7 mg/kg): 1.39 cm^3 | Average weight of tumor ([2]; Group I: peroral 7 mg/kg in olive oil, days 3, 5, 7, 9): 0.96 ± 0.14 | % inhibition, mass percent ([2]; Group II: peroral 10 mg/kg): 73.10% | % inhibition, volume percent ([2]; Group II: peroral 10 mg/kg): 76.0% | Average volume of tumor ([2]; Group II: peroral 10 mg/kg): 1.55 cm^3 | Average weight of tumor ([2]; Group II: peroral 10 mg/kg, days 3 to 10): 0.68 ± 0.34 | % inhibition, mass percent ([2]; Group III: peroral 15 mg/kg): 100% | % inhibition, volume percent ([2]; Group III: peroral 15 mg/kg): 100% | Average volume of tumor ([2]; Group III: peroral 15 mg/kg): 0 cm^3 | Average weight of tumor ([2]; Group III: peroral 15 mg/kg, days 3 to 10): 0 | % inhibition, mass percent ([2]; Group IV: injection 7 mg/kg): 68.0% | % inhibition, volume percent ([2]; Group IV: injection 7 mg/kg): 76.7% | Average volume of tumor ([2]; Group IV: injection 7 mg/kg): 1.5 cm^3 | Average weight of tumor ([2]; Group IV: injection 7 mg/kg in DMSO/physiological saline, days 3, 5, 7, 9): 1.025 ± 0.39 | fate of the tumor ([2]; group 3: peroral 15 mg/kg): disappeared completely | % inhibition ([3]; 5 mg/kg peroral in olive oil): 68% | Average weight of tumor ([3]; 5 mg/kg peroral in olive oil): 1.04 g | % inhibition ([3]; 10 mg/kg peroral in olive oil): 81.5% | Average weight of tumor ([3]; 10 mg/kg peroral in olive oil): 0.71 g | concentration of Fe—NO bonds (EPR) [4]: significantly reduces | number of colonies of hematopoietic cells in the spleen [5]: about 40 colonies | copper absorbed by Hep-2 cells ([6]; complex A in Tween 80 with lecithin liposomes, saturation value): 4.5×10^13 spin per gram | intake of copper-containing molecules in a cell ([6]; corresponds to the spin value): 10 molecules in a cell | intracellular accumulation of the copper complex ([6]; fractionated filtrate, EPR signal of copper): accumulated almost entirely in the nuclear chromatin | Living cells, % ([7]; Experiment 2, T4N2M0): 18.0 ± 1.71% | Dead cells, % ([7]; Experiment 2, T4N2M0, 40 million cells, 50 μl of preparation): 82.0 ± 1.78%
